Assay results as given in paper PMC4865847, “Putative histidine kinase inhibitors with antibacterial effect against multi-drug resistant clinical isolates identified by in vitro and in silico screens” (Scientific Reports, 2016).
Values after ≈ are worked out from the molar mass of the structure shown. Values joined by “and” are separate entries in the source; they are usually repeats but may differ in a detail not shown here. Equal entries are not always repeated. Where two headings read alike, the source gives them in different places. Marks after values point to notes of the source that are not given here.

Key:
[1] = molecular target: T1, E. coli PhoR (PhoR^E) (Escherichia coli, UniProt P08400); assay: In vitro autophosphorylation kinase assay with γ-32P-ATP, PhoR^E; format: biochemical; conditions: for IC50: autophosphorylation, one time point (30 sec), 10% DMSO
T1 construct: The catalytic portion (DHp and CA domain) of E. coli PhoR (PhoR^E); made in house; host or cells: E. coli RIL
T1 sequence (P08400 210-425): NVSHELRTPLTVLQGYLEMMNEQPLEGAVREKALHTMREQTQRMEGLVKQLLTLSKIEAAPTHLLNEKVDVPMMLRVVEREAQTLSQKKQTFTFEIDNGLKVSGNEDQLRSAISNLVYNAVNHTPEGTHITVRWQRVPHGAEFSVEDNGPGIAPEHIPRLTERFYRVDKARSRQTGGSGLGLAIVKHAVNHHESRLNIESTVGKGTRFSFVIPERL
Experimental: (§1) To evaluate the inhibitory capacity of selected hits from DSF, SBVS and LBSS in vitro autophosphorylation kinase assays with γ-^32P-ATP were performed as previously described. Ligands were dissolved in 100% DMSO. […] Controls lacking ligands contained an equal concentration of DMSO. Inhibition of autophosphorylation was determined by incubating 0.12 mg/ml (≈4 μM) HK and up to 20 mM fragment in kinase buffer (50 mM Tris HCl, pH 8.5, 50 mM KCl, 5 mM MgCl2, 0.5 mM EDTA and 0.1 mM DTT). Autophosporylation reactions were initiated by addition of 0.1 μCi/μl γ-^32P-ATP containing from 0.03 to 0.06 μM ATP (final concentrations). Autophosphorylation was quenched with 2xSDS-PAGE sample buffer supplemented with 50 mM EDTA. […] After electrophoresis, the bottoms of the gels were removed to lower the background from the unincorporated radiolabeled ATP. Gels were dried without staining on a Bio-Rad Gel Air drying system and the phosphorylated protein was quantified by phosphor-imaging. Prism GraphPad was used for curve fitting and statistical analysis.

[2] = molecular target: T2, S. pneumoniae WalK (Streptococcus pneumoniae, UniProt Q8DPL8); assay: In vitro autophosphorylation kinase assay with γ-32P-ATP, WalK; format: biochemical; conditions: autophosphorylation, one time point (30 sec), 10% DMSO
T2 construct: WalK (amino acids from 208 to 449); N-terminal His6-3C site of vector pOPINF (own knowledge of the vector); made in house; host or cells: E. coli RIL
T2 sequence (Q8DPL8 208-449): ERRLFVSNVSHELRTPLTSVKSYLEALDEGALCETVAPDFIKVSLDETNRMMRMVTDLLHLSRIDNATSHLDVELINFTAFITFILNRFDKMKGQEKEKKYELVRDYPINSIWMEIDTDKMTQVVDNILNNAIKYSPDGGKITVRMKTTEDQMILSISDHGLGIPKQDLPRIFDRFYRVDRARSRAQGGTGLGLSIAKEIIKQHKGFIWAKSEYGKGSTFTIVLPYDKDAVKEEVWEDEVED
Experimental: as §1

[3] = tested on: Staphylococcus aureus; assay: Antibacterial susceptibility testing (MIC/MBC), S. aureus; format: cell-based; conditions: for MIC / MBC: Staphylococcus aureus; for MBC: read-out: MBC S. aureus DSM 20231
Experimental: (§2) Minimal inhibitory concentrations (MICs) were determined following a standard double-dilution method. […] For S. pneumoniae MICs were determined by adapting the standard double-dilution method to anaerobic conditions and of this microorganism (use of Todd Hewitt Yeast extract with 200 U/mL of catalase and continuous monitoring of growth).

[4] = tested on: Staphylococcus epidermidis; assay: Antibacterial susceptibility testing (MIC/MBC), S. epidermidis; format: cell-based; conditions: for MBC / MIC: Staphylococcus epidermidis; for MIC S. epidermidis DSM 20044: strain DSM 20044
Experimental: as §2

[5] = tested on: Escherichia coli; assay: Antibacterial susceptibility testing (MIC/MBC), E. coli; format: cell-based; conditions: for MIC / MBC: Escherichia coli; for MBC: read-out: MBC E. coli CFT 073
Experimental: as §2

[6] = tested on: Streptococcus suis; assay: Antibacterial susceptibility testing (MIC), S. suis; format: cell-based
Experimental: (§3) Bacterial strains used in this study for antibacterial susceptibility testing (Table S5) were propagated using standard microbiological procedures. Minimal inhibitory concentrations (MICs) were determined following a standard double-dilution method. MICs were recorded as the lowest concentration of the compound where no visible growth was observed. After plating the dilutions around the MIC or growing them in fresh MH media, minimal bactericidal concentration (MBC) was recorded as the lowest concentration of the compound at which no colonies were formed or no growth was observed, respectively. For S. pneumoniae MICs were determined by adapting the standard double-dilution method to anaerobic conditions and of this microorganism (use of Todd Hewitt Yeast extract with 200 U/mL of catalase and continuous monitoring of growth).

[7] = tested on: Acinetobacter baumannii; assay: Antibacterial susceptibility testing (MIC), A. baumannii; format: cell-based; conditions: MDR clinical isolate NM8, read-out: MIC A. baumannii NM8
Experimental: as §3

[8] = tested on: Stenotrophomonas maltophilia; assay: Antibacterial susceptibility testing (MIC), S. maltophilia; format: cell-based; conditions: clinical isolate B32/1, read-out: MIC S. maltophilia B32/1
Experimental: as §3

[9] = tested on: Klebsiella pneumoniae; assay: Antibacterial susceptibility testing (MIC), K. pneumoniae; format: cell-based; conditions: Klebsiella pneumoniae, ATCC700603, strain ATCC 700603
Experimental: as §3

[10] = tested on: Pseudomonas aeruginosa; assay: Antibacterial susceptibility testing (MIC), P. aeruginosa; format: cell-based; conditions: Pseudomonas aeruginosa, ATCC27853; strain ATCC 27853
Experimental: as §3

[11] = Hemolysis assay; format: cell-based; conditions: human
Experimental: Hemolytic activity against human erythrocytes taken from a healthy donor was measured as previously described. The hemolysis experiments were carried out in accordance with the guidelines of the United Arab Emirates University (UAEU) Research Ethics Review Board. All experimental protocols were approved by the Research Ethics Review Board of UAEU and informed consent was obtained from all donors.

[12] = Solubility in kinase buffer; format: physicochemical; conditions: kinase buffer in the presence of 10% DMSO
[13] = molecular target: T3, S. aureus PhoR (PhoR^S) (Staphylococcus aureus, UniProt Q2FXN7); assay: In vitro autophosphorylation kinase assay with γ-32P-ATP, PhoR^S; format: biochemical; conditions: IC50 PhoR^S, autophosphorylation, one time point (30 sec), 10% DMSO
T3 sequence (Q2FXN7 entry or part of it): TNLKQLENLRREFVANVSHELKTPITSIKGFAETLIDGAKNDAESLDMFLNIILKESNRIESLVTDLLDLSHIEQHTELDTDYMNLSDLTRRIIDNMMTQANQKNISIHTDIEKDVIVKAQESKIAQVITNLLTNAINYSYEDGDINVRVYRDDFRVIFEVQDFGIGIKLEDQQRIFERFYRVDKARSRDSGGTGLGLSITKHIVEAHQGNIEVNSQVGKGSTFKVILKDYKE
Experimental: (§4) To evaluate the inhibitory capacity of selected hits from DSF, SBVS and LBSS in vitro autophosphorylation kinase assays with γ-^32P-ATP were performed as previously described. Ligands were dissolved in 100% DMSO. […] Controls lacking ligands contained an equal concentration of DMSO. Inhibition of autophosphorylation was determined by incubating 0.12 mg/ml (≈4 μM) HK and up to 20 mM fragment in kinase buffer (50 mM Tris HCl, pH 8.5, 50 mM KCl, 5 mM MgCl2, 0.5 mM EDTA and 0.1 mM DTT). Autophosporylation reactions were initiated by addition of 0.1 μCi/μl γ-^32P-ATP containing from 0.03 to 0.06 μM ATP (final concentrations). Autophosphorylation was quenched with 2xSDS-PAGE sample buffer supplemented with 50 mM EDTA. Samples were applied without heating to 15% (w/v) Tris-glycine SDS-polyacrylamide gels. After electrophoresis, the bottoms of the gels were removed to lower the background from the unincorporated radiolabeled ATP. Gels were dried without staining on a Bio-Rad Gel Air drying system and the phosphorylated protein was quantified by phosphor-imaging. Prism GraphPad was used for curve fitting and statistical analysis.

[14] = molecular target: T4, T. maritima HK853 (Thermotoga maritima, UniProt Q9WZV7); assay: In vitro autophosphorylation kinase assay with γ-32P-ATP, HK853; format: biochemical
T4 sequence (Q9WZV7 232-489): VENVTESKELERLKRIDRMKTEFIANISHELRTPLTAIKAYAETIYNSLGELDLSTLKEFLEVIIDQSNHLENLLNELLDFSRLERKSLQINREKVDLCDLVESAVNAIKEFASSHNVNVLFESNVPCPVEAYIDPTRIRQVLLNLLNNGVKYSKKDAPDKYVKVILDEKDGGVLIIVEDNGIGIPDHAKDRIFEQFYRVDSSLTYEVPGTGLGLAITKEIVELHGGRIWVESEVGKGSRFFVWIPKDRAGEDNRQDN
Experimental: as §4

[15] = molecular target: T1, E. coli PhoR (PhoR^E); assay: Aggregation analysis by native-PAGE, PhoR^E; conditions: 2 mM (S5 and S6 5 mM), 10% DMSO
Experimental: (§5) E. coli PhoR and EnvZ, and S. aureus PhoR ([…], final concentration) were prepared in kinase buffer. […] DMSO in the assays was maintained to a final concentration 10% (v/v). After 30 min of incubation at room temperature Native polyacrylamide gel electrophoresis (Native-PAGE) loading buffer was added and samples loaded. Coomassie blue staining was used for protein visualization.

[16] = molecular target: T3, S. aureus PhoR (PhoR^S); assay: Aggregation analysis by native-PAGE, PhoR^S; conditions: 2 mM (S5 and S6 5 mM), 10% DMSO
Experimental: as §5

[17] = DSM20231, strain DSM 20231, read-out: MIC S. aureus DSM 20231
[18] = DSM20044, strain DSM 20044, read-out: MIC S. epidermidis DSM 20044
[19] = strain CFT 073, read-out: MIC E. coli CFT 073

Oc1cccc2[nH]c3ccccc3c12 [F2.8]
inhibition at 2000 µM ([1]; 2 mM, 30 sec, compared to negative control): > 50% | IC50 ([1]; read-out: IC50 PhoR^E): 720 µM | IC50 ([2]; read-out: IC50 WalK): > 2000 µM | MIC ([3]; ATCC reference strain 25293, read-out: MIC S. aureus 25293): 250 µg/mL (≈ 1360 µM) | MBC ([3]; DSM20231, strain DSM 20231): 63 µg/mL (≈ 344 µM) | MIC [3, 17]: 31 to 250 µg/mL (≈ 169 to 1360 µM) | MIC ([3]; MRSA clinical isolate 127/08, read-out: MIC S. aureus 127/08): 250 µg/mL (≈ 1360 µM) | MIC ([3]; MRSA clinical isolate 145/08, read-out: MIC S. aureus 145/08): 250 µg/mL (≈ 1360 µM) | MIC ([3]; MRSA clinical isolate 274/08, read-out: MIC S. aureus 274/08): 250 µg/mL (≈ 1360 µM) | MIC ([3]; MRSA, MRSA clinical isolate T4/6, read-out: MIC S. aureus T4/6): 250 µg/mL (≈ 1360 µM) | MIC ([3]; MRSA, MRSA clinical isolate V4180, read-out: MIC S. aureus V4180): 250 µg/mL (≈ 1360 µM) | MIC ([3]; MRSA, summary over strains, read-out: MICs for the MRSA strains and S. aureus 25293): 125 to 500 µg/mL (≈ 682 to 2730 µM) | MIC S. aureus DSM 20231 ([3]; strain DSM 20231): 31 µg/mL (≈ 169 µM) | MBC ([4]; DSM20044, strain DSM 20044): 250 µg/mL (≈ 1360 µM) | MIC [4, 18]: 31 to 500 µg/mL (≈ 169 to 2730 µM) | MIC ([4]; clinical isolate T7/3, read-out: MIC S. epidermidis T7/3): 63 µg/mL (≈ 344 µM) | MIC ([4]; clinical isolate T37/8, read-out: MIC S. epidermidis T37/8): 250 µg/mL (≈ 1360 µM) | MIC ([4]; clinical isolate T6119, read-out: MIC S. epidermidis T6119): 250 µg/mL (≈ 1360 µM) | MIC ([4]; strain RP62A (biofilm producer), read-out: MIC S. epidermidis RP62A): 250 µg/mL (≈ 1360 µM) | MIC ([4]; strain RP62A/1 (non-biofilm producer), read-out: MIC S. epidermidis RP62A/1): 250 µg/mL (≈ 1360 µM) | MIC ([4]; summary over strains, read-out: MICs for the S. epidermidis strains): 31 to 250 µg/mL (≈ 169 to 1360 µM) | MIC S. epidermidis DSM 20044 [4]: 31 µg/mL (≈ 169 µM) | MIC ([5]; ATCC25276, strain ATCC 25276, read-out: MIC E. coli ATCC 25276): 500 µg/mL (≈ 2730 µM) | MBC ([5]; strain CFT 073): 500 µg/mL (≈ 2730 µM) | MIC ([5]; summary over E. coli strains, read-out: antibacterial effects (MIC) against E. coli): ≥ 63 µg/mL | MIC ([6]; Streptococcus suis, read-out: MIC Streptococcus suis 3881/S10, strain 3881/S10): 250 µg/mL (≈ 1360 µM) | MIC Streptococcus suis 3881/S10 ([6]; strain 3881/S10): 125 µg/mL (≈ 682 µM) | MIC [7]: > 500 µg/mL | MIC [8]: > 500 µg/mL | MIC [9]: 250 µg/mL (≈ 1360 µM) | MIC [10]: > 500 µg/mL | HC50 [11]: > 500 µg/mL | solubility in kinase buffer [12]: good solubility

CCC(Nc1cccc(NC(C)=O)c1)c1ccc(F)cc1 (centres unmarked) [S5]
IC50 [13]: ~1000 µM | IC50 ([1]; IC50 PhoR^E): ~1000 µM | IC50 [14]: > 5000 µM | IC50 ([2]; IC50 WalK): > 1000 µM | MBC ([3]; DSM20231, strain DSM 20231): > 500 µg/mL | MIC [3, 17]: > 500 µg/mL | MBC ([4]; DSM20044, strain DSM 20044): > 500 µg/mL | MIC [4, 18]: 500 µg/mL (≈ 1750 µM) | MIC S. epidermidis DSM 20044 [4]: 500^# μg/ml | MBC ([5]; strain CFT 073): > 500 µg/mL | MIC [5, 19]: > 500 µg/mL | HK aggregation, PhoR^E [15]: do not cause HK aggregation | HK aggregation, PhoR^S [16]: do not cause HK aggregation | solubility ([12]; kinase buffer with 10% DMSO, pH 8.5, aqueous with cosolvent or surfactant or cyclodextrin, kinetic from dmso stock, read-out: concentration above which not soluble / reduced solubility in kinase buffer): ≤ 1300 µM

CC(=O)Nc1cccc(C(C)NCc2cccc(Br)c2)c1 (centres unmarked) [S6]
IC50 [13]: 1140 µM | IC50 ([1]; read-out: IC50 PhoR^E): 372 µM and 370 µM | IC50 ([14]; autophosphorylation, one time point (30 sec), 10% DMSO, read-out: IC50 HK853): > 5000 µM | IC50 ([2]; IC50 WalK): ~1000 µM | IC50 ([2]; read-out: IC50 WalK): > 1000 µM | MBC ([3]; DSM20231, strain DSM 20231): > 500 µg/mL | MIC [3, 17]: > 500 µg/mL | MBC ([4]; DSM20044, strain DSM 20044): > 500 µg/mL | MIC [4, 18]: 500 µg/mL (≈ 1440 µM) | MIC S. epidermidis DSM 20044 [4]: 500^# μg/ml | MBC ([5]; strain CFT 073): > 500 µg/mL | MIC [5, 19]: 500 µg/mL (≈ 1440 µM) | MIC E. coli CFT 073 ([5]; strain CFT 073): 500^# μg/ml | HK aggregation, PhoR^E [15]: do not cause HK aggregation | HK aggregation, PhoR^S [16]: do not cause HK aggregation
